Measurements reported in PMC10916402, “Meropenem-ANT3310, a unique β-lactam-β-lactamase inhibitor combination with expanded antibacterial spectrum against Gram-negative pathogens including carbapenem-resistant Acinetobacter baumannii” (Antimicrobial Agents and Chemotherapy, 2024).
Converted amounts (≈) assume the structure as drawn. Where two headings read alike, the source gives them in different places.

Key:
[1] = test system: A. baumannii clinical isolates; test: Broth microdilution MIC, A. baumannii clinical isolates; assay type: cell-based, Acinetobacter baumannii; settings: for CLSI % Res: for MEM-ANT3310 % at ≥16 µg/mL; for MIC90: read-out: MIC90
Description: (§1) All isolates were randomly selected from the frozen culture collection of IHMA collected in 2018 and 2019. Matrix-assisted laser desorption ionization-time of flight mass spectrometry was used to confirm the identity of the organisms tested (Bruker Daltonics, Bremen, Germany).
(§2) MICs for all antimicrobial agents were determined at IHMA by broth microdilution in accordance with both CLSI ([17]) and EUCAST ([18]) guidelines. Microtiter panels were prepared by IHMA and stored at −70°C in cation-adjusted Mueller Hinton broth (CAMHB) (Becton Dickinson). Iron-depleted CAMHB was used to test cefiderocol. Panels containing ANT3310 were prepared fresh on the day of testing. […] MIC values corresponded to the first well with no visible growth. Quality control testing was performed on each day of testing with E. coli ATCC 25922, P. aeruginosa ATCC 27853, K. pneumoniae ATCC 700603 and BAA 1705, and A. baumannii NCTC 13304. MICs were interpreted using 2023 CLSI ([17]) and EUCAST ([18]) BPs.

[2] = test system: carbapenem-resistant Acinetobacter baumannii (CRAB) clinical isolates; test: Broth microdilution MIC, CRAB isolates; assay type: cell-based; settings: for Number of isolates inhibited at MIC of 0.25 µg/mL / Number of isolates inhibited at MIC of 0.5 µg/mL / Number of isolates inhibited at MIC of 1 µg/mL / Number of isolates inhibited at MIC of 2 µg/mL / Number of isolates inhibited at MIC of 4 µg/mL / Number of isolates inhibited at MIC of 8 µg/mL / Number of isolates inhibited at MIC of 16 µg/mL / Number of isolates inhibited at MIC of 32 µg/mL / Number of isolates inhibited at MIC of >32 µg/mL / Number of isolates inhibited at MIC of ≤0.125 µg/mL / MIC50 / MIC90: CRAB (MEM MICs >4 µg/mL); for CLSI % Res / CLSI % Sus: CRAB, CLSI BP; for CLSI % Res: for MEM-ANT3310 % at ≥16 µg/mL; for CLSI % Sus: for MEM-ANT3310 % inhibited at ≤8 µg/mL; for MIC90: read-out: MIC90
Description: as §1, §2

[3] = test system: KPC-producing Enterobacterales (KPC-CRE); test: organism not typed; assay type: cell-based
Description: as §1, §2

[4] = test system: OXA-producing Enterobacterales (OXA-CRE); test: organism not typed; assay type: cell-based
Description: as §1, §2

[5] = test system: P. aeruginosa clinical isolates; test: Broth microdilution MIC, P. aeruginosa clinical isolates; assay type: cell-based, Pseudomonas aeruginosa; settings: 502 P. aeruginosa, 2019 global collection
Description: as §1, §2

[6] = 2018 Global collection, All A. baumannii, N 500
[7] = 2019 Global collection, All A. baumannii, N 405
[8] = 180 KPC-producing Enterobacterales, EUCAST BP
[9] = 252 OXA-producing Enterobacterales, EUCAST BP

## CC(C)(O/N=C(\C(=O)N[C@@H]1C(=O)N2C(C(=O)[O-])=C(C[N+]3(CCNC(=O)c4ccc(O)c(O)c4Cl)CCCC3)CS[C@H]12)c1csc(N)n1)C(=O)O [Cefiderocol, cefiderocol]
[1]; [6]
  Number of isolates inhibited at MIC of 0.25 µg/mL: 83
  Number of isolates inhibited at MIC of 0.5 µg/mL: 111
  Number of isolates inhibited at MIC of 1 µg/mL: 78
  Number of isolates inhibited at MIC of 2 µg/mL: 52
  Number of isolates inhibited at MIC of 4 µg/mL: 24
  Number of isolates inhibited at MIC of 8 µg/mL: 3
  Number of isolates inhibited at MIC of 16 µg/mL: 3
  Number of isolates inhibited at MIC of 32 µg/mL: 2
  Number of isolates inhibited at MIC of >32 µg/mL: 21
  Number of isolates inhibited at MIC of ≤0.125 µg/mL: 123
[1]; 2018 Global collection, All A. baumannii, N 500, CLSI BP
  CLSI % Res: 10.6%
[1]; [7]
  MIC50: 0.5 µg/mL (≈ 0.665 µM)
  Number of isolates inhibited at MIC of 0.25 µg/mL: 72
  Number of isolates inhibited at MIC of 0.5 µg/mL: 99
  Number of isolates inhibited at MIC of 1 µg/mL: 64
  Number of isolates inhibited at MIC of 2 µg/mL: 35
  Number of isolates inhibited at MIC of 4 µg/mL: 19
  Number of isolates inhibited at MIC of 8 µg/mL: 12
  Number of isolates inhibited at MIC of 16 µg/mL: 8
  Number of isolates inhibited at MIC of 32 µg/mL: 2
  Number of isolates inhibited at MIC of >32 µg/mL: 18
  Number of isolates inhibited at MIC of ≤0.125 µg/mL: 76
[1]; 2019 Global collection, All A. baumannii, N 405, CLSI BP
  CLSI % Res: 14.6%
[1]; 2019 Global collection, All A. baumannii, N 405, CLSI BP, for MEM-ANT3310 % inhibited at ≤8 µg/mL
  CLSI % Sus: 76.8%
[1]; Acinetobacter baumannii, 2018 Global collection, All A. baumannii, N 500, read-out: MIC50
  MIC50: 0.5 µg/mL (≈ 0.665 µM)
[1]; Acinetobacter baumannii, 2018 Global collection, All A. baumannii, N 500
  MIC90: 4 µg/mL (≈ 5.32 µM)
[1]; Acinetobacter baumannii, 2019 Global collection, All A. baumannii, N 405
  MIC90: 4 µg/mL (≈ 5.32 µM)
[1]; Acinetobacter baumannii, A. baumannii, one or both of the 2018/2019 collections
  MIC90: 4 µg/mL (≈ 5.32 µM)
[2]; 2018 Global collection, N 363
  Number of isolates inhibited at MIC of 0.25 µg/mL: 63
  Number of isolates inhibited at MIC of 0.5 µg/mL: 99
  Number of isolates inhibited at MIC of 1 µg/mL: 72
  Number of isolates inhibited at MIC of 2 µg/mL: 49
  Number of isolates inhibited at MIC of 4 µg/mL: 21
  Number of isolates inhibited at MIC of 8 µg/mL: 3
  Number of isolates inhibited at MIC of 16 µg/mL: 3
  Number of isolates inhibited at MIC of 32 µg/mL: 2
  Number of isolates inhibited at MIC of >32 µg/mL: 17
  Number of isolates inhibited at MIC of ≤0.125 µg/mL: 34
  CLSI % Res: 12.7%
  CLSI % Sus: 73.8%
[2]; 2019 Global collection, N 340
  MIC50: 0.5 µg/mL (≈ 0.665 µM)
  Number of isolates inhibited at MIC of 0.25 µg/mL: 64
  Number of isolates inhibited at MIC of 0.5 µg/mL: 93
  Number of isolates inhibited at MIC of 1 µg/mL: 61
  Number of isolates inhibited at MIC of 2 µg/mL: 34
  Number of isolates inhibited at MIC of 4 µg/mL: 19
  Number of isolates inhibited at MIC of 8 µg/mL: 9
  Number of isolates inhibited at MIC of 16 µg/mL: 8
  Number of isolates inhibited at MIC of 32 µg/mL: 2
  Number of isolates inhibited at MIC of >32 µg/mL: 18
  Number of isolates inhibited at MIC of ≤0.125 µg/mL: 32
  CLSI % Res: 16.5%
  CLSI % Sus: 73.5%
[2]; Acinetobacter baumannii, 2018 Global collection, N 363, read-out: MIC50
  MIC50: 0.5 µg/mL (≈ 0.665 µM)
[2]; Acinetobacter baumannii, 2018 Global collection, N 363
  MIC90: 4 µg/mL (≈ 5.32 µM)
[2]; Acinetobacter baumannii, 2019 Global collection, N 340
  MIC90: 8 µg/mL (≈ 10.6 µM)
[3]
  MIC50: 1 µg/mL (≈ 1.33 µM)
  MIC90: 4 µg/mL (≈ 5.32 µM)
[3]; 180 KPC-producing Enterobacterales, CLSI BP, for MEM-ANT3310 % at ≥16 µg/mL
  CLSI % Res: 0%
[3]; 180 KPC-producing Enterobacterales, CLSI BP, for MEM-ANT3310 % inhibited at ≤8 µg/mL
  CLSI % Sus: 100%
[3]; [8]
  EUCAST % Res: 27.2%
  EUCAST % Sus: 72.8%
[4]
  MIC50: 1 µg/mL (≈ 1.33 µM)
  MIC90: 4 µg/mL (≈ 5.32 µM)
[4]; 252 OXA-producing Enterobacterales, CLSI BP, for MEM-ANT3310 % at ≥16 µg/mL
  CLSI % Res: 0.4%
[4]; 252 OXA-producing Enterobacterales, CLSI BP, for MEM-ANT3310 % inhibited at ≤8 µg/mL
  CLSI % Sus: 98.8%
[4]; [9]
  EUCAST % Res: 21.8%
  EUCAST % Sus: 78.2%
[5]
  Number of isolates inhibited at MIC of 0.25 µg/mL: 125
  Number of isolates inhibited at MIC of 0.5 µg/mL: 92
  Number of isolates inhibited at MIC of 1 µg/mL: 33
  Number of isolates inhibited at MIC of 2 µg/mL: 16
  Number of isolates inhibited at MIC of 4 µg/mL: 7
  Number of isolates inhibited at MIC of 8 µg/mL: 1
  Number of isolates inhibited at MIC of 32 µg/mL: 1
  Number of isolates inhibited at MIC of ≤0.125 µg/mL: 227
[5]; Pseudomonas aeruginosa, read-out: MIC50
  MIC50: 0.25 µg/mL (≈ 0.332 µM)
[5]; Pseudomonas aeruginosa, read-out: MIC90
  MIC90: 1 µg/mL (≈ 1.33 µM)
